Literature values, collected in patent publication US10561704B2, “Compositions and methods for treating neuropsychiatric disorders using an endothelin-B receptor agonist” (MIDWESTERN UNIVERSITY, priority 2013, dated 2020).
Where a SMILES comes first, the peptide text is derived from it.

Tested on: Aβ treated rats
Details: Briyal et al., 2011; cited from earlier work

| SMILES | Aβ induced oxidative stress and cognitive deficits |
| --- | --- |
| Cc1noc(NS(=O)(=O)c2cccc3c(N(C)C)cccc23)c1C [BMS182874] | prevent |
| CC(C)C[C@@H]1NC(=O)[C@@H](C(C)C)NC(=O)[C@@H]2CCCN2C(=O)[C@@H](CC(=O)O)NC(=O)[C@@H](Cc2c[nH]c3ccccc23)NC1=O [BQ123] (HELM PEPTIDE1{L.[dW].[dD].P.[dV]}$PEPTIDE1,PEPTIDE1,1:R1-5:R2$$$V2.0) | prevent |
